# Measurements taken from paper PMC6273472, “Design, Synthesis and Biological Evaluation of 6-(2,6-Dichloro-3,5-dimethoxyphenyl)-4-substituted-1H-indazoles as Potent Fibroblast Growth Factor Receptor Inhibitors” (Molecules, 2016).
# “And” between values parts separate entries of the source, which are not always exact repeats. Identical values can stand only once.
# Tests used:
# FGFR1 = FGFR1 (Homo sapiens, UniProt P11362); experiment: ELISA kinase assay (FGFR1 enzymatic assay); type: biochemical; conditions: for inhibition at 0.01 µM: 0.01 μmol/L compound; for inhibition at 0.01 µM / inhibition at 0.1 µM: read-out: Enzyme Inhibition (%); for IC50: mean ± SD, two separate experiments
# Procedure: The effects of compounds on the activities of FGFR1 kinases were determined using enzyme-linked immunosorbent assays (ELISAs) with purified recombinant proteins. Briefly, 20 μg/mL poly (Glu, Tyr)4:1 (Sigma, St. Louis, MO, USA) was pre-coated in 96-well plates as a substrate. A 50-μL aliquot of 10 μmol/L ATP solution diluted in kinase reaction buffer (50 mmol/L HEPES [pH 7.4], 50 mmol/L MgCl2, 0.5 mmol/L MnCl2, 0.2 mmol/L Na3VO4, and 1 mmol/L DTT) was added to each well; 1 μL of various concentrations of compounds diluted in 1% DMSO (v/v) (Sigma) were then added to each reaction well. DMSO (1%, v/v) was used as the negative control. The kinase reaction was initiated by the addition of purified tyrosine kinase proteins diluted in 49 μL of kinase reaction buffer. After incubation for 60 min at 37 °C, the plate was washed three times with phosphate-buffered saline (PBS) containing 0.1% Tween 20 (T-PBS). Anti-phosphotyrosine (PY99) antibody (100 μL; 1:500, diluted in 5 mg/mL BSA T-PBS) was then added. After a 30-min incubation at 37 °C, the plate was washed three times, and 100 μL horseradish peroxidase-conjugated goat anti-mouse IgG (1:2000, diluted in 5 mg/mL BSA T-PBS) was added. The plate was then incubated at 37 °C for 30 min and washed 3 times. A 100-μL aliquot of a solution containing 0.03% H2O2 and 2 mg/mL o-phenylenediamine in 0.1 mol/L citrate buffer (pH 5.5) was added. The reaction was terminated by the addition of 50 μL of 2 mol/L H2SO4 as the color changed, and the plate was analyzed using a multi-well spectrophotometer (SpectraMAX 190, Molecular Devices, Palo Alto, CA, USA) at 490 nm. […] The IC50 values were calculated from the inhibition curves in two separate experiments.
# FGFR2 = test system: FGFR2; parameters: method as in PMID 21936542; conditions: molecular level; cited from earlier work
# FGFR3 = test system: FGFR3; parameters: method as in PMID 21936542; conditions: molecular level; cited from earlier work
# FGFR4 = test system: FGFR4; parameters: method as in PMID 21936542; conditions: molecular level; cited from earlier work
# [1] = test system: tumors harboring FGFR signaling aberrations; conditions: phase I trial, patients with tumors harboring FGFR signaling aberrations; cited from earlier work
# Chain of FGFR1 (P11362 22-822): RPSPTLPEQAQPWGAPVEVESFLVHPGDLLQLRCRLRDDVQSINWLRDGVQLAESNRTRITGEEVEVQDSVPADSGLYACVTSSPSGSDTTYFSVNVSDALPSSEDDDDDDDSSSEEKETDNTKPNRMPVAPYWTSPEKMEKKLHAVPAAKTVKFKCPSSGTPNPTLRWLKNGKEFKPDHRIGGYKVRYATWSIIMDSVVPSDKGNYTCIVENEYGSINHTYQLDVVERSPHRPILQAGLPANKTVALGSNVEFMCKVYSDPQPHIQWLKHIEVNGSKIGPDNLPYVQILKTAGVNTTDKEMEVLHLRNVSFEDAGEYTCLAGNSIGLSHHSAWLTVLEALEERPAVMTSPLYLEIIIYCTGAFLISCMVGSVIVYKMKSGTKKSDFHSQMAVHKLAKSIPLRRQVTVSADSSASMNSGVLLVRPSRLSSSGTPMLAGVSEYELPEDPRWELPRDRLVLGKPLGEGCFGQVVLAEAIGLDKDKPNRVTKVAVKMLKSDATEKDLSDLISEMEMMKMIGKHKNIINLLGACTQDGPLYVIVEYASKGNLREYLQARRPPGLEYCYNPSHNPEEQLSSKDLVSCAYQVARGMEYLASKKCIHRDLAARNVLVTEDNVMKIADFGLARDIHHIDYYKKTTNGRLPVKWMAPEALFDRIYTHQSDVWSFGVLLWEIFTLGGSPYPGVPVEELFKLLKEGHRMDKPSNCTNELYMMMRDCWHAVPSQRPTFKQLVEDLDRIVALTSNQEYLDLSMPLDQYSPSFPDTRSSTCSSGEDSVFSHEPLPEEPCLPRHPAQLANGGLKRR
Compound,inhibition at 0.01 µM (FGFR1),inhibition at 0.1 µM (FGFR1; 0.1 μmol/L compound),IC50 (FGFR1),melting point,IC50 (FGFR2),IC50 (FGFR3),IC50 (FGFR4),Enzyme Inhibition (%) (FGFR1; 0.1 μmol/L compound),Enzyme Inhibition (%) (FGFR1; 1 μmol/L compound),on-target activity observed in patients [1]
"COc1cc(OC)c(Cl)c(-c2cc(C(=O)Nc3cccc(-c4cncnc4)c3)c3cn[nH]c3c2)c1Cl [Compound 12i, 6-(2,6-Dichloro-3,5-dimethoxyphenyl)-N-(3-(pyrimidin-5-yl)phenyl)-1H-indazole-4-carboxamide]",35.1%,60.3%,86.2 ± 17 nM,177 to 179 °C,–,–,–,–,–,–
"COc1cc(OC)c(Cl)c(-c2cc(C(=O)Nc3cccc(N4CCN(C)CC4)c3)c3cn[nH]c3c2)c1Cl [Compound 13a, 6-(2,6-Dichloro-3,5-dimethoxyphenyl)-N-(3-(4-methylpiperazin-1-yl)phenyl)-1H-indazole-4-carboxamide]",48.3%,72.7%,~30.2 nM and 30.2 nM,205 to 207 °C,–,–,–,–,–,–
"COc1cc(OC)c(Cl)c(-c2cc(C(=O)Nc3cccc(N4CCN(C(C)=O)CC4)c3)c3cn[nH]c3c2)c1Cl [Compound 13e, N-(3-(4-Acetylpiperazin-1-yl)phenyl)-6-(2,6-dichloro-3,5-dimethoxyphenyl)-1H-indazole-4-carboxamide]",27.7%,64.7%,118 ± 3.9 nM,209 to 211 °C,–,–,–,–,–,–
"CCN1CCN(c2ccc(Nc3cc(N(C)C(=O)Nc4c(Cl)c(OC)cc(OC)c4Cl)ncn3)cc2)CC1 [NVP-BGJ398, 3-(2,6-dichloro-3,5-dimethoxy-phenyl)-1-{6-[4-(4-ethyl-piperazin-1-yl)-phenylamino]-pyrimidin-4-yl}-1-methyl-urea]",–,–,–,–,1.4 nM,[…],[…],–,–,–
AZD4547 [reference compound],–,–,–,–,–,–,–,93.2%,94.3%,five of 20
